Source: US4532255A, “Amidine compounds and anticomplement agent comprising same” (Torii & Co., Ltd., priority 1980, dated 1985)
pIC50: −log10 of the molar value. “And” between values parts separate entries of the source, which are not always exact repeats. Equal entries are not always repeated.

Assays:
Kallikrein [1] = experiment: Anti-kallikrein activity (hydrolysis of TAME); type: biochemical; details: molar concentration inhibiting 50% of TAME hydrolysis; read-out: Kallikrein ID50
Protocol: The anti-trypsin, anti-plasmin, anti-kallikrein and anti-thrombin activities were determined according to the method of Muramatsu et al. [M. Muramatsu, T. Onishi, S. Makino, Y. Hayashi and S. Fujii, J. of Biochem., 58, 214 (1965)]. The data summarized in Table 1 are expressed in terms of molar concentration (ID50) of the test compound which inhibits 50% of the activity of each enzyme to hydrolyze TAME (tosylalginine methyl ester). The compound No. corresponds to the compound number shown in Examples.

Plasmin [2] = target: T1, Plasmin (Homo sapiens, UniProt P00747); details: G. Wagner et al., Pharmazie 1977; cited from earlier work
Plasmin [3] = target: T1, Plasmin; experiment: Anti-plasmin activity (hydrolysis of TAME); type: biochemical; details: molar concentration inhibiting 50% of TAME hydrolysis; read-out: Plasmin ID50
Protocol: (§1) The anti-trypsin, anti-plasmin, anti-kallikrein and anti-thrombin activities were determined according to the method of Muramatsu et al. [M. Muramatsu, T. Onishi, S. Makino, Y. Hayashi and S. Fujii, J. of Biochem., 58, 214 (1965)]. […] The compound No. corresponds to the compound number shown in Examples.

Trypsin [4] = target: T2, Trypsin (Bos taurus, UniProt P00760); details: G. Wagner et al., Pharmazie 1977; cited from earlier work
T2 sequence (P00760 24-246): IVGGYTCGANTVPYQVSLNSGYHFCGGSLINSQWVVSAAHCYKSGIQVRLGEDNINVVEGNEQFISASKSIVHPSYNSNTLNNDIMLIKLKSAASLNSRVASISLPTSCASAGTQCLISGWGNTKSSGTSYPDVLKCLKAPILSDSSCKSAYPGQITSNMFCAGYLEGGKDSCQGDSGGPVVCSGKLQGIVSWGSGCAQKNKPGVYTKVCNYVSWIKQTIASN

Thrombin [5] = target: T3, Thrombin (Homo sapiens, UniProt P00734); experiment: biochemical; details: for pIC50: molar concentration inhibiting 50% of TAME hydrolysis, read-out: Thrombin ID50; for inhibition at 10 µM: at 1×10^-5 M, read-out: Thrombin percentage inhibition
Thrombin [6] = target: T3, Thrombin; details: G. Wagner et al., Pharmazie 1977; cited from earlier work
Trypsin [7] = target: T2, Trypsin; experiment: Anti-trypsin activity (hydrolysis of TAME); type: biochemical; details: molar concentration inhibiting 50% of TAME hydrolysis; read-out: Trypsin ID50
Protocol: as §1

[8] = Toxicity, median lethal dose (LD50); details: in vivo
C1r = target: T4, C1r (Homo sapiens, UniProt P00736); experiment: Anti-C1 esterase (C1r) activity (hydrolysis of AAME); type: biochemical; details: for pIC50: AAME hydrolysis, read-out: Anti-C1 activity, C1r ID50
T4 sequence (P00736 464-705 limits assumed): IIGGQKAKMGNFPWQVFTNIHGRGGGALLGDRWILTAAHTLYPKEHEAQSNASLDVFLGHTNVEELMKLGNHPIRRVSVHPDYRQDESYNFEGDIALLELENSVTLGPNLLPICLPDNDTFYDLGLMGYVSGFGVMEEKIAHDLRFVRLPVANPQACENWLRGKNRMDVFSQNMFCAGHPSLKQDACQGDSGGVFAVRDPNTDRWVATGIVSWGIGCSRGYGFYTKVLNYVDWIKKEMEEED
T4 sequence (P00736 18-463 partner limits assumed): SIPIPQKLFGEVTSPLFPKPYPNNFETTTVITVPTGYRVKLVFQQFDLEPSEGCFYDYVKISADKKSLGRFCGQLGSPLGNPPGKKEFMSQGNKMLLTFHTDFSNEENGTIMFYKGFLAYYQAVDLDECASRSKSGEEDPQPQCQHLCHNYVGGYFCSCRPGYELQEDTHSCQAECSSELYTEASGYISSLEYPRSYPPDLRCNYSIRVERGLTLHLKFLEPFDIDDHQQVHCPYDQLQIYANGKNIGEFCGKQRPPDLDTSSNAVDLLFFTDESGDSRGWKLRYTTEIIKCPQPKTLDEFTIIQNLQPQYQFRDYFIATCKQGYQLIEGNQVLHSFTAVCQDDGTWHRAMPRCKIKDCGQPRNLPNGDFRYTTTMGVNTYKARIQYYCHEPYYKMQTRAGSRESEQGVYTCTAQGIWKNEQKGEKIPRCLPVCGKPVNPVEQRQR
Protocol: The anti-Cl esterase ([…]) activity was determined according to the method of Okamura et al. [K. Okamura, M. Muramatsu and S. Fujii, Biochem. Biophys.

C1s [9] = target: T5, C1s (Homo sapiens, UniProt P09871); experiment: biochemical; details: ATEE hydrolysis; read-out: Anti-C1 activity, C1s ID50
T5 sequence (P09871 438-688 limits assumed): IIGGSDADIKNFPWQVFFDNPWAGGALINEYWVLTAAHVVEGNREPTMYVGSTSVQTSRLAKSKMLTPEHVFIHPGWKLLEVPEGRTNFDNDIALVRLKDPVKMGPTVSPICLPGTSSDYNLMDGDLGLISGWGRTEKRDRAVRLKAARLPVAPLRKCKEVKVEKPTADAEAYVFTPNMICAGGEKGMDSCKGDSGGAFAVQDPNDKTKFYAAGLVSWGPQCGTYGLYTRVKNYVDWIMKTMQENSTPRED
T5 sequence (P09871 16-437 partner limits assumed): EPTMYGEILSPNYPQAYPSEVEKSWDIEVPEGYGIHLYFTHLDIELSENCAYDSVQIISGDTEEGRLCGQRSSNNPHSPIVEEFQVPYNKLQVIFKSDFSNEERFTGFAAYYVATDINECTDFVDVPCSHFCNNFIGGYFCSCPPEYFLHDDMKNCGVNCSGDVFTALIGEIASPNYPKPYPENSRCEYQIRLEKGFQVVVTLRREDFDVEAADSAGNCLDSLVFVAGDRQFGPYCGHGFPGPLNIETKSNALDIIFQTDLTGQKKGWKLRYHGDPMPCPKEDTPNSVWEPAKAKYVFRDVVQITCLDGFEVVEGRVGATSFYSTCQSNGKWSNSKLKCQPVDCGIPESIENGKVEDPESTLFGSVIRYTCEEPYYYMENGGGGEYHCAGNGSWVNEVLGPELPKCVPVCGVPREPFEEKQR
Protocol: The anti-Cl esterase (Clr, Cls) activity was determined according to the method of Okamura et al. [K. Okamura, M. Muramatsu and S. Fujii, Biochem. Biophys. […] The figures in Table 2 have the following meanings:
Cls: Molar concentration of the test compound which inhibits 50% of the ability of Cls to hydrolyse ATEE (acetyltyrosin ethyl ester).

[10] = tested on: complement mediated hemolysis; experiment: Inhibition of complement mediated hemolysis; type: cell-based
Protocol: The principle of this method is based on the fact that hemolysis is caused by the activation of complement, when the latter is added to a complex (immune complex) of erythrocytes and the antibody thereof. The degree of hemolysis varies in proportion to the amount of complement added. Therefore, when a known amount of complement admixed with a C1 esterase inhibitor is used, the hemolysis must be suppressed in proportion to the inhibitory activity.

Forssman shock = Forssman shock (survival time after hemolysin); type: in vivo, Male Hartlay guinea pig; details: 5 minutes before hemolysin
Description: Quite different from other animals, guinea pig has on the surface of its organs a specific antigen called Forssman antigen which specifically reacts with the antibody of sheep erythrocyte. Forssman shock is based on the above principle and is a shock caused by the administration of antibody of sheep erythrocyte to a guinea pig. The Forssman shock was investigated in detail by many researchers and it was definitely shown that this shock is a model case where the complement plays the principal part and that the shock is associated with a classical pathway in which the complement system is activated progressively starting from C1. Since the participation of complement in autoimmune diseases has been established, the Forssman shock can be said to be a useful means for testing a drug for autoimmune diseases. A drug effective for the treatment of Forssman shock is useful as a drug of autoimmune diseases. [Anti-trypsin, anti-plasmin, anti-kallikrein and anti-thrombin activities]
The experiment was performed according to the method of I. G. Offerness et al. [Biochem. Pharmacol., 27 (14), 1873-1878 (1978)]. Male Hartlay guinea pig of about 300 g in body weight was used. Each guinea pig of the control group was administered intravenously with 0.5 ml (minimum dose to cause the shock) of hemolysin (commercial hemolysin, 5,000 U as assayed by the method of Ogata) and the time elapsed until death was observed. For the test group, each guinea pig was administered intravenously with the test compound 5 minutes before the administration of hemolysin and the time (second) elapsed until death was observed.

Kallikrein [11] = experiment: Anti-kallikrein activity (hydrolysis of TAME); type: biochemical; details: at 1×10^-5 M
C1s [12] = target: T5, C1s; experiment: biochemical; details: at 1×10^-5 M; read-out: Anti-C1 activity, C1s percent inhibition
complement = details: Y. Takada et al., Immunology 1978; cited from earlier work
[13] = 1.0 mg/kg intravenous, control average 465 (No. 27), 428 (No. 22)

T1 sequence (P00747 581-810 limits assumed, species assumed): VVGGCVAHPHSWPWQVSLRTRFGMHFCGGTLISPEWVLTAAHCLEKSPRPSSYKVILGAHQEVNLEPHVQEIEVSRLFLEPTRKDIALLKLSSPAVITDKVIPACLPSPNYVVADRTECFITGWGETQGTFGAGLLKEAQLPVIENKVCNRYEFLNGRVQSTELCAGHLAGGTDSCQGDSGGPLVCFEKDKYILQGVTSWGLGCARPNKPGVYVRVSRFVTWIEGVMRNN
T1 sequence (P00747 97-580 partner limits assumed, species assumed): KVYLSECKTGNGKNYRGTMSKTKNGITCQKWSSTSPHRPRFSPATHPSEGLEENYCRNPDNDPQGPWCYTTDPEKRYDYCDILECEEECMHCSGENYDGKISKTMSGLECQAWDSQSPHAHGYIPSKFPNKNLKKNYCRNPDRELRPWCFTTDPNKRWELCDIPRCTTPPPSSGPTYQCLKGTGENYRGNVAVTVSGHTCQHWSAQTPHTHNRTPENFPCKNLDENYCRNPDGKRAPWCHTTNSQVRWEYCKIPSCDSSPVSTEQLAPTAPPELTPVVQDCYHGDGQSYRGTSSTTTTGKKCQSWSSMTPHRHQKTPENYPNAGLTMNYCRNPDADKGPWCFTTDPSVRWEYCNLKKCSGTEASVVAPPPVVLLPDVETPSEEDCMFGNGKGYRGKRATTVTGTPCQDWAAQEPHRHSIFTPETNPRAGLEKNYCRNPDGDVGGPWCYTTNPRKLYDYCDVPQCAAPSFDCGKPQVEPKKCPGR

SMILES: N=C(N)c1ccc2cc(O)ccc2c1 [6-amidino-2-naphthol, reference compound]
- pIC50 (Kallikrein [1]): < 3.00
- Plasmin inhibition in words (Plasmin [2]): inhibits trypsin, plasmin and thrombin
- pIC50 (Plasmin [3]): 3.36
- Trypsin inhibition in words (Trypsin [4]): inhibits trypsin, plasmin and thrombin
- pIC50 (Thrombin [5]): < 3.00
- Thrombin inhibition in words (Thrombin [6]): inhibits trypsin, plasmin and thrombin
- pIC50 (Trypsin [7]): < 3.00

SMILES: N=C(N)c1ccc2cc(OC(=O)c3ccc(CN)cc3)ccc2c1 [Compound 22, 6-amidino-2-naphthyl 4-aminomethylbenzoate]
- LD50 ([8]; ip): 200 mg/kg
- LD50 ([8]; po): 2500 mg/kg
- pIC50 (Kallikrein [1]): 5.52
- pIC50 (C1r): 6.52
- pIC50 (C1s [9]): 6.70
- pIC50 (Plasmin [3]): 5.40
- inhibition at 10 µM (Thrombin [5]): 26%
- Inhibition of complement mediated hemolysis (%) ([10]; 1 × 10^-4): 100%
- Inhibition of complement mediated hemolysis (%) ([10]; 1 × 10^-5): 99%
- Inhibition of complement mediated hemolysis (%) ([10]; 1 × 10^-6): 90%
- Inhibition of complement mediated hemolysis (%) ([10]; 1 × 10^-7): 48%
- Time elapsed until death, individual animal (Forssman shock; 1.0 mg/kg intravenous): 240 s and 630 s and 250 s and 570 s and 440 s and 675 s
- Time elapsed until death, average (Forssman shock; [13]): 468 s
- Time elapsed until death, individual animal (Forssman shock; 3.0 mg/kg intravenous): 745 s and 1410 s and 600 s and 885 s and 455 s and 435 s
- Time elapsed until death, average (Forssman shock; 3.0 mg/kg intravenous, control average 428): 755 s
- pIC50 (Trypsin [7]): 5.40

SMILES: N=C(N)Nc1ccc(C(=O)Oc2ccc3cc(C(=N)N)ccc3c2)cc1 [Compound 27, 6-amidino-2-naphthyl 4-guanidinobenzoate]
- LD50 ([8]; ip): 200 mg/kg
- LD50 ([8]; po): 2500 mg/kg
- pIC50 (Kallikrein [1]): 5.30
- pIC50 (C1r): 7.00
- pIC50 (C1s [9]): 7.30
- pIC50 (Thrombin [5]): 5.52
- Inhibition of complement mediated hemolysis (%) ([10]; 1 × 10^-4): 100%
- Inhibition of complement mediated hemolysis (%) ([10]; 1 × 10^-5): 100%
- Inhibition of complement mediated hemolysis (%) ([10]; 1 × 10^-6): 97%
- Inhibition of complement mediated hemolysis (%) ([10]; 1 × 10^-7): 44%
- Time elapsed until death, individual animal (Forssman shock; 0.5 mg/kg intravenous): 732 s and 740 s and 723 s and 724 s and 590 s and 410 s
- Time elapsed until death, average (Forssman shock; 0.5 mg/kg intravenous, control average 465): 653 s
- Time elapsed until death, individual animal (Forssman shock; 1.0 mg/kg intravenous): 740 sec. and 820 sec. and Survival and 670 sec. and 1325 sec.
- Time elapsed until death, average (Forssman shock; [13]): > 889 s

SMILES: N=C(N)c1ccc2cc(OC(=O)c3cccc(C(F)(F)F)c3)ccc2c1 [Compound 33]
- pIC50 (C1r): 6.00
- pIC50 (C1s [9]): 5.52
- pIC50 (Plasmin [3]): 5.52
- inhibition at 10 µM (Thrombin [5]): 40%
- Inhibition of complement mediated hemolysis (%) ([10]; 1 × 10^-4): 75%
- Inhibition of complement mediated hemolysis (%) ([10]; 1 × 10^-5): 39%
- Inhibition of complement mediated hemolysis (%) ([10]; 1 × 10^-6): 7%
- Inhibition of complement mediated hemolysis (%) ([10]; 1 × 10^-7): 22%
- Kallikrein percentage inhibition (Kallikrein [11]): 13%
- pIC50 (Trypsin [7]): 5.10

SMILES: N=C(N)c1ccc2cc(OC(=O)CCc3ccc(N)cc3)ccc2c1 [Compound 51, 6-amidino-2-naphthyl 4-aminophenylpropionate]
- inhibition at 10 µM (C1r; at 1×10^-5 M, read-out: Anti-C1 activity, C1r percent inhibition): 18%
- pIC50 (Plasmin [3]): 5.22
- inhibition at 10 µM (C1s [12]): 21%
- inhibition at 10 µM (Thrombin [5]): 35%
- Inhibition of complement mediated hemolysis (%) ([10]; 1 × 10^-4): 54%
- Inhibition of complement mediated hemolysis (%) ([10]; 1 × 10^-5): 6%
- Inhibition of complement mediated hemolysis (%) ([10]; 1 × 10^-6): 1%
- Inhibition of complement mediated hemolysis (%) ([10]; 1 × 10^-7): 0%
- pIC50 (Trypsin [7]): 5.00

SMILES: CC(=O)N[C@@H](CC(C)C)C(=O)N[C@@H](CC(C)C)C(=O)N[C@H](C=O)CCCNC(=N)N [Leupeptin, reference compound]
- Inhibition of complement mediated hemolysis (%) ([10]; 1 × 10^-4): 97%
- Inhibition of complement mediated hemolysis (%) ([10]; 1 × 10^-5): 52%
- Inhibition of complement mediated hemolysis (%) ([10]; 1 × 10^-6): 0%
- Inhibition of complement mediated hemolysis (%) ([10]; 1 × 10^-7): 0%
- Anti-complement activity in words (complement): having an anti-complement activity
